Source: patent US12157713B2, “Conjugated oligoelectrolytes as antimicrobial agents” (Nanyang Technological University, priority 2018, dated 2024)
Where “and” joins values, the source holds several entries; their conditions need not be identical. Equal values may be shown once. Read-outs that look alike come from different tables or passages of the source.

Columns and labels:
[1] = test system: Staphylococcus aureus MRSA ATCC 43300; test: Single-dose growth inhibition, Sa; type: cell-based
Procedure: (§1) Inhibition of bacterial growth was determined by measuring the absorbance at 600 nm (OD600), using a Tecan M1000 Pro monochromator plate reader. Growth inhibition was calculated for each well, relative to the reference growths determined from a negative control (media only) and positive control (bacteria without inhibitors) incubated in the same plate. A single dose of 32 μg/mL of COE (final concentration) was used for each test.
(§2) Percentage growth inhibition of an individual sample was calculated based on growth in a reference well determined from negative controls (media only) and positive controls (bacterial/fungal media without inhibitors). Negative inhibition values indicate that the growth rate (or OD600) is higher compared to the reference growth (bacteria/fungi only, set to 0% inhibition). The growth rates for all bacteria and fungi may vary at −/+10%, which were within the reported normal distribution of bacterial/fungal growth. Any significant variations (or outliers/hits) were identified by the modified Z-Score, and the active compounds were selected by a combination of inhibition values and Z-Score.
(§3) A M(i) value of >|2.5| (absolute) would classify the sample as outliers or hits. Active samples were denoted as compounds with inhibition values equal to or above 80% and absolute Z-Score above |2.5| for either replicate (n=2 on different plates). Partial active samples were denoted as compounds with inhibition values from 50% to <80%, or absolute Z-Score below |2.5|.

[2] = test system: Escherichia coli FDA control ATCC 25922; test: Single-dose growth inhibition, Ec; type: cell-based
Procedure: as §1, §2, §3

[3] = test system: Candida albicans ATCC 90028; test: Single-dose growth inhibition, Ca; type: cell-based
Procedure: Growth inhibition of C. albicans was determined by measuring the absorbance at 530 nm (OD530), while the growth inhibition of C. neoformans was determined by measuring the difference in absorbance between 600 and 570 nm (OD600-570), after the addition of resazurin (0.001 wt. % final concentration) and incubation at 35° C. for additional 2 hrs. The absorbance was measured using a Biotek Synergy HTX plate reader. The relative growth inhibition was calculated for each well, relative to that determined from a negative control (media only) and positive control (bacteria without inhibitors) on the same plate as references. A single dose of 32 μg/mL of COE (final concentration) was used for each test.
as §2, §3

[4] = Solubility in PBS / aqueous solubility; type: physicochemical
E. coli K12 [5] = test: Cellular uptake by E. coli K12 (absorption spectroscopy); type: cell-based, Escherichia coli; conditions: for Uptake by E. coli K12: 10 μg/mL COE in PBS, OD=0.5, 2 hrs, room temperature; for Uptake by E. coli K12 at 4° C.: 10 μg/mL COE, 2 hrs, 4° C. (below membrane phase transition temperature)
Procedure: The relative membrane affinity of COE-D4, COE-D6 and COE-D8 was estimated from the quantity taken up by cells using absorption spectroscopy. After cultures of E. coli K12 were grown in MHB at 37° C., the cells were harvested by centrifugation (6000 rpm, 5 min) and washed twice with PBS solution (pH=7.2). The cells were then resuspended in PBS and with the density adjusted to OD=1.0. Thereafter, 5 mL of this cell suspension was mixed with an equal volume of 20 μg/mL of COE in PBS to achieve a final concentration of 10 μg/mL (in triplicates). After exposure to COEs for 2 hrs at room temperature and with shaking (200 rpm), the cells were removed by centrifugation and the supernatant was collected for absorbance scans to quantify the remaining COE in the supernatant. The uptake quantity was estimated by comparing the absorbance of the supernatant to the corresponding control COE solution (i.e. 10 μg/mL in PBS). The procedure for uptake measurements at the lower temperature is similar to the one described above, but with the exposure to COEs and centrifugation occurring at 4° C. instead of room temperature
The effect of molecular structures of the COEs on relative membrane affinity, estimated from the amount taken up by E. coli K12, was measured by absorption spectroscopy (FIG. 8a-c). These experiments utilised cell suspensions (OD=0.5) incubated for 2 hrs with 10 μg mL^−1 of various COE. Cells were removed by centrifugation, and the amount of uncomplexed COE was determined from the optical absorption spectra. The longest molecule, COE-D8, achieved the highest uptake in bacteria (72%). In contrast, only 3% of COE-D4 was absorbed while the uptake for COE-D6 was 16% (Table 1a).
Parallel experiments were carried out at 4° C. […] As a result of the reduced fluidity of cellular membrane at lower temperature, the uptake decreased to around 1% for COE-D4, 5% for COE-D6, and 34% for COE-D8.

E. coli K12 [6] = test: SEM of COE-treated E. coli K12; type: cell-based, Escherichia coli; conditions: 32 μg mL^−1 COE, 2 hrs
Procedure: E. coli K-12 was grown, collected and washed according to the procedure described above (in the uptake measurements). COE solutions (in PBS) were added to a PBS suspension of E. coli K12 (OD600=1.0) to achieve final COE concentrations of 32 μg/mL. After incubating for 2 hrs at room temperature under shaking (200 rpm), the microbes were immediately fixed with 2.5% glutaraldehyde solution at 4° C. overnight. 10 μL of the fixed bacteria suspension was spotted onto the SEM conducting paste and left to dry in air. The bacteria samples were dehydrated with a series of increasingly concentrated ethanol solution (20%-100%). After drying overnight, the samples were coated with platinum and imaged with FESEM (JEOL JSM-6700F) to characterise the morphology of the samples.
Characterisation of treated E. coli K12 by scanning electron microscopy (SEM) COE-treated cells were characterised by SEM. E. coli K12 ([…]) were treated with 32 μg mL^−1 of each COE. […] This is consistent with the proposal that COE insertion disrupts membrane integrity and this effect is of a greater magnitude for COE-D8.

E. coli K12 [7] = test: Epifluorescence imaging of COE-treated E. coli K12; type: cell-based, Escherichia coli; conditions: 32 μg/mL COE; excitation 365 nm, emission 445/50 nm
Procedure: E. coli K-12 was grown, collected and washed according to the procedure described above (in the uptake measurements). COE solutions (in PBS) were added to a PBS suspension of E. coli K12 (OD600=1.0) to achieve final COE concentrations of 32 μg/mL. After incubating for 2 hrs at room temperature under shaking (200 rpm), a drop of suspension was placed on a microscope slide with a cover slip (#1.5, 0.17 mm thickness) and imaged using an inverted widefield epifluorescence microscope with Plan-Apochromat 100x/1.4 phase contrast with oil immersion lens (Carl Zeiss Axio Observer Z1 Inverted Microscope). The fluorescence microscopy images were observed by collecting the fluorescence signal of COEs using the DAPI dye channel (filter set 49 DAPI with excitation peak at 365 nm and emission at 445/50 nm). The bright field images of cells were obtained at exact same location using phase contrast transmitted light technique (Plan-Apochromat 100x/1.4 phase contrast with oil immersion lens). The cell images treated by different COEs were obtained under identical conditions with the matching irradiation frequency and exposure time.
Epi-fluorescence images of the COE-treated E. coli K12 cells were acquired by excitation at λ=365 nm and collecting emission at λ=445/50 nm.

[8] = ATCC25922, read-out: Growth inhibition Ec
[9] = ATCC90028, read-out: Growth inhibition Ca
[10] = aqueous buffer, in PBS, read-out: Solubility in PBS
[11] = PBS (aqueous solubility), read-out: aqueous solubility
[12] = 32 μg/mL single dose, n=2, read-out: Growth inhibition Sa
[13] = ATCC25922, 32 μg/mL single dose, n=2, read-out: Growth inhibition Ec
[14] = ATCC90028, 32 μg/mL single dose, n=2, read-out: Growth inhibition Ca

C[N+](C)(C)CCCCOc1ccc(/C=C/c2ccc(OCCCC[N+](C)(C)C)cc2)cc1 [COE-D4]
inhibition at 32 µg/mL ([1]; read-out: Growth inhibition Sa): > 80%
inhibition at 32 µg/mL [2, 8]: < 50%
inhibition at 32 µg/mL [3, 9]: < 50%
solubility [4, 10]: 3100 µg/mL
Uptake by E. coli K12 (E. coli K12 [5]): 3% and 3 ± 2%
Uptake by E. coli K12 at 4° C. (E. coli K12 [5]): around 1%
Morphology of treated E. coli K12 by SEM (E. coli K12 [6]): rod-shaped cells with smooth outer surfaces
Fluorescence intensity of treated E. coli K12 cells relative to background (E. coli K12 [7]): indistinct image

C[N+](C)(C)CCCCCCOc1ccc(/C=C/c2ccc(OCCCCCC[N+](C)(C)C)cc2)cc1 [COE-D6]
inhibition at 32 µg/mL ([1]; read-out: Growth inhibition Sa): > 80%
inhibition at 32 µg/mL [2, 8]: > 80%
inhibition at 32 µg/mL [3, 9]: > 80%
solubility [4, 11]: 240 µg/mL
solubility [4, 10]: 240 µg/mL
Uptake by E. coli K12 (E. coli K12 [5]): 16% and 16 ± 3%
Uptake by E. coli K12 at 4° C. (E. coli K12 [5]): ~5%
Morphology of treated E. coli K12 by SEM (E. coli K12 [6]): pitting and membrane rupture
Fluorescence intensity of treated E. coli K12 cells relative to background (E. coli K12 [7]): intermediate fluorescence intensity

C[N+](C)(C)CCCCCCCCOc1ccc(/C=C/c2ccc(OCCCCCCCC[N+](C)(C)C)cc2)cc1 [COE-D8]
inhibition at 32 µg/mL ([1]; read-out: Growth inhibition Sa): > 80%
inhibition at 32 µg/mL [2, 8]: > 80%
inhibition at 32 µg/mL [3, 9]: > 80%
solubility [4, 10]: 65 µg/mL
Uptake by E. coli K12 (E. coli K12 [5]): 72% and 72 ± 5%
Uptake by E. coli K12 at 4° C. (E. coli K12 [5]): ~34%
Cell affinity relative to COE-D4 (E. coli K12 [5]; E. coli K12): 30 times
Morphology of treated E. coli K12 by SEM (E. coli K12 [6]): pitting and membrane rupture
Fluorescence intensity of treated E. coli K12 cells relative to background (E. coli K12 [7]): highest fluorescence intensities

CN(C)CC[N+](C)(C)CCCCCCOc1ccc(/C=C/c2ccc(OCCCCCC[N+](C)(C)CCN(C)C)cc2)cc1 [COE-D62N]
inhibition at 32 µg/mL [1, 12]: > 80%
inhibition at 32 µg/mL [2, 13]: > 80%
inhibition at 32 µg/mL [3, 14]: > 80%
solubility [4, 11]: > 4000 µg/mL
Uptake by E. coli K12 (E. coli K12 [5]): 11±2%

CN(C)CC[N+](C)(C)CCCCCCCCOc1ccc(/C=C/c2ccc(OCCCCCCCC[N+](C)(C)CCN(C)C)cc2)cc1 [COE-D82N]
inhibition at 32 µg/mL [1, 12]: > 80%
inhibition at 32 µg/mL [2, 13]: > 80%
inhibition at 32 µg/mL [3, 14]: > 80%
Uptake by E. coli K12 (E. coli K12 [5]): 76±3%
